The source made the active and inactive calls. The rule behind the calls is not given here.
How the values were obtained:
[1] = biological target: T1, Peroxisome proliferator-activated receptor alpha (Homo sapiens) (UniProt Q07869); assay: Transactivation of GAL4-tagged human PPARalpha LBD expressed in human HepG2 cells after 20 hrs by luciferase reporter gene assay relative to Wy-14,643; format: cell-based
T1 sequence (whole entry): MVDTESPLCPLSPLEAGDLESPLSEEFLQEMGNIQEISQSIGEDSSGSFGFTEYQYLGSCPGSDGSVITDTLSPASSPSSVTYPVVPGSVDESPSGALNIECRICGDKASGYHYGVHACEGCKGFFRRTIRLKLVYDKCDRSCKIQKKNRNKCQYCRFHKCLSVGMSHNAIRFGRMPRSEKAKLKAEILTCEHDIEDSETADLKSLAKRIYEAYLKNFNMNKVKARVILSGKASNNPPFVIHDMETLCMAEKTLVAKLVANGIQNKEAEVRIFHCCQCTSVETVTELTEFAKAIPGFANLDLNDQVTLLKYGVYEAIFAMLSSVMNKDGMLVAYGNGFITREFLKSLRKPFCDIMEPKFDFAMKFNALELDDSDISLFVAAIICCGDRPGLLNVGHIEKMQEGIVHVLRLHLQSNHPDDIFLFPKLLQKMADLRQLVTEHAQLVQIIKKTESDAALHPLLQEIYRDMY

[2] = biological target: T2, Peroxisome proliferator-activated receptor alpha (Homo sapiens, UniProt Q07869); assay: Transactivation of GAL4-tagged human PPARalpha LBD expressed in human HepG2 cells after 20 hrs by luciferase reporter gene assay; format: cell-based
T2 sequence (Q07869 whole entry): T1 sequence (whole entry)

[3] = biological target: T3, Peroxisome proliferator-activated receptor gamma (Homo sapiens, UniProt P37231); assay: Transactivation of GAL4-tagged human PPARgamma LBD expressed in human HepG2 cells after 20 hrs by luciferase reporter gene assay; format: cell-based
T3 sequence (P37231 whole entry): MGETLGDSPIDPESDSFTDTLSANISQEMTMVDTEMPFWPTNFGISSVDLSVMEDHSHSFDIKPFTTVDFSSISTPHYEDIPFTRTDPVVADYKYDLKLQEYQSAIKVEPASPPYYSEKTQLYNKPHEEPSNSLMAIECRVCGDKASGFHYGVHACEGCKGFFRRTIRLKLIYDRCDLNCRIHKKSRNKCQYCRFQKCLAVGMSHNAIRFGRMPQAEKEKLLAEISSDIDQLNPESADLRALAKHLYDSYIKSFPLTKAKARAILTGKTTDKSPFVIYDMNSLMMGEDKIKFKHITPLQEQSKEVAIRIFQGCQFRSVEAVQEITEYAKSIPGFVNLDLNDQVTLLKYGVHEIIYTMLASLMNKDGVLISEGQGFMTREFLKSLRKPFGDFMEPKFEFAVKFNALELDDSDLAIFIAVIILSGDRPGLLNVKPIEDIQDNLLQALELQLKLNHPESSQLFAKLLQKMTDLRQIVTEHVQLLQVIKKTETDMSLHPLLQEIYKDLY

3T3-L1 [4] = assay: Induction of lipid accumulation in mouse 3T3L1 cells at 2 uM by Oil Red O staining-based assay; format: functional, cell-based
3T3-L1 [5] = assay: Induction of lipid accumulation in mouse 3T3L1 cells at 5 uM by Oil Red O staining-based assay; format: functional, cell-based
3T3-L1 [6] = assay: Induction of cells lipid accumulation in mouse 3T3L1 cells at 10 uM by Oil Red O staining-based assay; format: functional, cell-based
[7] = biological target: T4, Peroxisome proliferator-activated receptor gamma (Mus musculus) (UniProt P37238); assay: Agonist activity at PPARgamma in mouse 3T3-L1 cells assessed as increase in glut4 RNA expression at 5 to 10 uM by qRT-PCR analysis; format: cell-based
T4 sequence (whole entry): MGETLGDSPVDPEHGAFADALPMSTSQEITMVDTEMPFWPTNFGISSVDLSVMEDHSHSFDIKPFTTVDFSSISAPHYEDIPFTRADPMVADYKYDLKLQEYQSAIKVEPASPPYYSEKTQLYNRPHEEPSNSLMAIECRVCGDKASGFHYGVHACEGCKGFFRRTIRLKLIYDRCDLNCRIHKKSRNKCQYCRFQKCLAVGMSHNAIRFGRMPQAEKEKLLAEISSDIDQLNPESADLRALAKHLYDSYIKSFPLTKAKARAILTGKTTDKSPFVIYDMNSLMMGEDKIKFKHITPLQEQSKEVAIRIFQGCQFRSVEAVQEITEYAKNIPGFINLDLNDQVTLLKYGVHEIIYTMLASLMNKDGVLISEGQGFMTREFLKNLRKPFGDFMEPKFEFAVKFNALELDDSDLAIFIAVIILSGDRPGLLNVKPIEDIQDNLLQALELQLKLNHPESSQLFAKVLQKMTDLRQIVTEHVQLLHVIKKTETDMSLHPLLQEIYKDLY

[8] = biological target: T4, Peroxisome proliferator-activated receptor gamma (Mus musculus); assay: Agonist activity at PPARgamma in mouse 3T3-L1 cells assessed as increase in fabp4 RNA expression at 5 to 10 uM by qRT-PCR analysis; format: cell-based
[9] = biological target: T5, Peroxisome proliferator-activated receptor alpha (Mus musculus) (UniProt P23204); assay: Agonist activity at PPARalpha in mouse Hepa1-6 cells assessed as increase in cpt1a RNA expression at 1 to 5 uM by qRT-PCR analysis; format: cell-based
T5 sequence (whole entry): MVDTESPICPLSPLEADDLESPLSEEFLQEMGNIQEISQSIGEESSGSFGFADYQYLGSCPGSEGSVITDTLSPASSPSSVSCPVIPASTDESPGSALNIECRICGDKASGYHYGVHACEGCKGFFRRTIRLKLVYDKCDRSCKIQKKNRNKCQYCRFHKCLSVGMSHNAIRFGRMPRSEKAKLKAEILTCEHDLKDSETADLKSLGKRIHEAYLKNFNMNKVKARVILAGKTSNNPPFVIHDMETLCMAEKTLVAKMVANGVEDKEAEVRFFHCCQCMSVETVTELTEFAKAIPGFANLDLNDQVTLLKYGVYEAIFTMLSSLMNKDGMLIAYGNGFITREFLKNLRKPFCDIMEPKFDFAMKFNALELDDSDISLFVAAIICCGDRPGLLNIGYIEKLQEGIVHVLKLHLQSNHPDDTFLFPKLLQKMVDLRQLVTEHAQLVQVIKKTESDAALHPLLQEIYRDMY

[10] = biological target: T4, Peroxisome proliferator-activated receptor gamma (Mus musculus); assay: Agonist activity at PPARgamma in mouse 3T3-L1 cells assessed as increase in fabp4 RNA expression at 0.1 to 2.5 uM by qRT-PCR analysis; format: cell-based
[11] = biological target: T3, Peroxisome proliferator-activated receptor gamma; assay: Synergistic agonist activity at human PPARgamma LBD assessed as biotin-labeled PGC1alpha (130 to 154 residues) co-activator recruitment after 1 hr in presence of 1 uM rosiglitazone by TR-FRET assay
[12] = biological target: T4, Peroxisome proliferator-activated receptor gamma (Mus musculus); assay: Agonist activity at PPARgamma in mouse 3T3-L1 cells assessed as increase in CD36 RNA expression at 0.1 to 2.5 uM by qRT-PCR analysis; format: cell-based
[13] = biological target: T4, Peroxisome proliferator-activated receptor gamma (Mus musculus); assay: Agonist activity at PPARgamma in mouse 3T3-L1 cells accessed as increase in 2-deoxy-D-glucose uptake at 10 uM treated 17 hrs prior to insulin stimulation; format: cell-based
[14] = biological target: T3, Peroxisome proliferator-activated receptor gamma; assay: Synergistic agonist activity at human PPARgamma LBD assessed as biotin-labeled PGC1alpha (130 to 154 residues) co-activator recruitment after 1 hr in presence of 0.37 uM rosiglitazone by TR-FRET assay
[15] = biological target: T4, Peroxisome proliferator-activated receptor gamma (Mus musculus); assay: Agonist activity at PPARgamma in mouse 3T3-L1 cells assessed as increase in Idh3a RNA expression at 0.1 to 2.5 uM by qRT-PCR analysis; format: cell-based
[16] = biological target: T5, Peroxisome proliferator-activated receptor alpha (Mus musculus); assay: Agonist activity at PPARalpha in mouse Hepa1-6 cells assessed as increase in acadm RNA expression at 1 to 5 uM by qRT-PCR analysis; format: cell-based
[17] = biological target: T4, Peroxisome proliferator-activated receptor gamma (Mus musculus); assay: Agonist activity at PPARgamma in mouse 3T3-L1 cells assessed as increase in pck1 RNA expression at 5 to 10 uM by qRT-PCR analysis; format: cell-based
[18] = biological target: T4, Peroxisome proliferator-activated receptor gamma (Mus musculus); assay: Agonist activity at PPARgamma in mouse 3T3-L1 cells assessed as increase in Gk RNA expression at 0.1 to 2.5 uM by qRT-PCR analysis; format: cell-based
[19] = biological target: T4, Peroxisome proliferator-activated receptor gamma (Mus musculus); assay: Agonist activity at PPARgamma in mouse 3T3-L1 cells assessed as increase in glut4 RNA expression at 0.1 to 2.5 uM by qRT-PCR analysis; format: cell-based
[20] = biological target: T6, Peroxisome proliferator-activated receptor gamma (Homo sapiens) (UniProt P37231); assay: Binding affinity wild type apo form of PPARgamma (unknown origin) assessed as inhibition of CDK5/p35-mediated PPARgamma phosphorylation at ser273 at 0.1 to 10 uM after 3.5 hrs by ELISA relative to rosiglitazone
T6 sequence (whole entry): T3 sequence (P37231 whole entry)

3T3-L1 [21] = assay: Induction of lipid accumulation in mouse 3T3L1 cells at 0.1 to 2.5 uM by Oil Red O staining-based assay; format: functional, cell-based
[22] = biological target: T6, Peroxisome proliferator-activated receptor gamma (Homo sapiens); assay: Transactivation of GAL4-tagged human PPARgamma LBD expressed in human HepG2 cells at 10^-9 to 10^-5 M after 20 hrs in presence of 5 uM PPARgamma antagonist GW9662 by luciferase reporter gene assay; format: cell-based
[23] = biological target: T4, Peroxisome proliferator-activated receptor gamma (Mus musculus); assay: Agonist activity at PPARgamma in mouse 3T3-L1 cells assessed as increase in pck1 RNA expression at 0.1 to 2.5 uM by qRT-PCR analysis; format: cell-based
[24] = biological target: T4, Peroxisome proliferator-activated receptor gamma (Mus musculus); assay: Agonist activity at PPARgamma in mouse 3T3-L1 cells assessed as increase in adipoq RNA expression at 5 to 10 uM by qRT-PCR analysis; format: cell-based
[25] = biological target: T5, Peroxisome proliferator-activated receptor alpha (Mus musculus); assay: Agonist activity at PPARalpha in mouse Hepa1-6 cells assessed as increase in Acox1 RNA expression at 1 to 5 uM by qRT-PCR analysis; format: cell-based
[26] = biological target: T6, Peroxisome proliferator-activated receptor gamma (Homo sapiens); assay: Agonist activity at human PPARgamma LBD assessed as induction of recruitment of biotin-labeled PGC1alpha (130 to 154 residues) co-activator at >1 uM after 1 hr by TR-FRET assay
[27] = biological target: T3, Peroxisome proliferator-activated receptor gamma; assay: Synergistic agonist activity at human PPARgamma LBD assessed as biotin-labeled PGC1alpha (130 to 154 residues) co-activator recruitment after 1 hr in presence of 10 uM rosiglitazone by TR-FRET assay
[28] = biological target: T4, Peroxisome proliferator-activated receptor gamma (Mus musculus); assay: Agonist activity at PPARgamma in mouse 3T3-L1 cells assessed as increase in Suclg1 RNA expression at 0.1 to 2.5 uM by qRT-PCR analysis; format: cell-based
[29] = biological target: T4, Peroxisome proliferator-activated receptor gamma (Mus musculus); assay: Synergistic agonist activity at PPARgamma in mouse 3T3-L1 cells accessed as increase in 2-deoxy-D-glucose uptake at 10 uM in presence of 0.3 uM rosiglitazone dosed 17 hrs prior to insulin stimulation
[30] = biological target: T4, Peroxisome proliferator-activated receptor gamma (Mus musculus); assay: Agonist activity at PPARgamma in mouse 3T3-L1 cells assessed as increase in adipoq RNA expression at 0.1 to 2.5 uM by qRT-PCR analysis; format: cell-based

In the case of O=C(O)[C@@H](Cc1ccc(-c2ccccc2)cc1)Oc1ccc(-c2ccccc2)cc1, the Emax [1] is reported as 25%, the EC50 ([2]; read-out: EC50) is reported as 2.6 µM and the EC50 [3] is reported as 0.89 µM.
With CN(CCOc1ccc(CC2SC(=O)NC2=O)cc1)c1ccccn1 (stereo unspecified) the Activity (3T3-L1 [4]) was “Active” and the Activity (3T3-L1 [5]) was “Active”.
With O=C(O)[C@H](Cc1ccc(-c2ccccc2)cc1)Oc1ccc(-c2ccccc2)cc1 the Activity (3T3-L1 [6]) was “inactive”, the Activity [7] was “inactive” and the Activity [8] was “inactive”. For the same compound, the Activity [9] was “Active”, the Activity [10] was “inactive” and the Emax [1] was 68%. For the same compound, the EC50 [11] was 2.85 µM, the EC50 ([2]; read-out: EC50) was 1.05 µM and the Activity [12] was “inactive”. For the same compound, the Activity [13] was “Active”, the EC50 [14] was 3.69 µM and the Activity [15] was “inactive”. The Activity [16] was “Active”, the Activity [17] was “inactive” and the Activity [18] was “inactive”. The Activity [19] was “inactive”, the Activity [20] was “Active” and the Activity (3T3-L1 [21]) was “inactive”. The Activity [22] was “Active”, the Activity [23] was “inactive” and the Activity [24] was “inactive”. The Activity [25] was “Active”, the Activity [26] was “Active” and the EC50 [27] was 9.78 µM. The Activity [28] was “inactive”, the Activity [29] was “Active” and the EC50 [3] was 0.12 µM. The Activity [30] was “inactive”.
Work on O=C(O)[C@H](Cc1ccc(-c2ccc(O[C@H](Cc3ccccc3)C(=O)O)cc2)cc1)Oc1ccc(-c2ccccc2)cc1 yielded an EC50 ([2]; read-out: EC50) of 27 µM and an EC50 [3] of 18 µM.
O=C(O)[C@H](Cc1ccc(-c2ccc(O[C@@H](Cc3ccccc3)C(=O)O)cc2)cc1)Oc1ccc(-c2ccccc2)cc1 showed an EC50 ([2]; read-out: EC50) of 5.9 µM and an EC50 [3] of 9.8 µM.
With O=C(O)[C@@H](Cc1ccc(-c2ccc(O[C@H](Cc3ccccc3)C(=O)O)cc2)cc1)Oc1ccc(-c2ccccc2)cc1 the EC50 ([2]; hepg2) was “Not Active” and the EC50 [3] was 15 µM.
With O=C(O)[C@H](Cc1ccccc1)Oc1ccc(-c2ccc(C[C@@H](Oc3ccc(-c4ccccc4)cc3)C(=O)O)cc2)cc1 the EC50 ([2]; read-out: EC50) was 9.5 µM and the EC50 [3] was 25 µM.

— ChEMBL document CHEMBL4229563, “Identification of the First PPARα/γ Dual Agonist Able To Bind to Canonical and Alternative Sites of PPARγ and To Inhibit Its Cdk5-Mediated Phosphorylation” (J Med Chem, 2018)
